biological target: human αvβ3 receptor (Homo sapiens, UniProt P05106+P06756); assay: Bond displacement Vitronectin/Vitronectin Receptor (αvβ3), binding competition test Vn/VR; details: human vitronectin coated plates, 3 hours at ambient temperature
Method: 1—Study by the Products of the Invention of the Bond Displacement: Vitronectin/Vitronectin Receptor (αvβ3) 96-well MaxiSorp plates are coated overnight at 4° C., with 100 μl of human Vitronectin (cf Yatohgo et al. Cell., Structure and fraction 13: 281-292 (1988)) at 2 μg/ml, (Dilution in coating buffer).
The next day, the wells are emptied and the ligands (Vitronectin) are then fixed (see fixation buffer) for 1 hour at ambient temperature under gentle agitation.
The wells are washed six times (see washing buffer), then the following are added per well and in this order:
40 μl of incubation buffer, 10 μl of the dilution of the product to be tested, (the products are diluted in a 50/50 mixture of DMSO—H2O) 50 μl of human αvβ3 receptor (cf Pytela et al. Methods Enzymol (1987)144:475) (dilution in incubation buffer, adapted according to the batch of receptor and according to the ligand).
The ligand, the human αvβ3 receptor and the products to be studied are incubated for 3 hours at ambient temperature under gentle agitation.
The wells are again washed six times, then incubated for 2 hours at ambient temperature under gentle agitation, in the presence of 100 μl of 4B12-HRP antibody, anti-receptor coupled to a peroxidase (the 4B12-HRP antibody is diluted in incubation buffer. The dilution is adapted according to the batch of receptor).
The wells are then washed six times before measurement of ligand-receptor bond is carried out using a peroxidase developer kit (TMB Microwell Peroxidase Substrate System Kirkegaard: Ref. cat. 50-76-00).
This kit contains a flask A of substrate (3,3′,5,5′-tetramethylbenzidine at 0.4 g/l) and a flask B (H2O2 at 0.02% in Citrate/Citric acid buffer). Extemporaneously, one volume of A is mixture with one volume of B, then the reaction mixture is distributed at the rate of 100 μl/well. The enzymatic reaction develops in 12′ for Vitronectin/αvβ3, then its development is stopped by the addition of 100 μl of 1M phosphoric acid.
The optical density is measured at 450 nm. […]
coating buffer: 0.05 M Carbonate, NaOH pH 9.6 fixation buffer: PBS containing 0.5% of BSA (pH 7.4) washing buffer: PBS containing 0.05% of Tween 20 (pH 7.4)
Expression of the results:
The following curve is plotted: the percentage of bond of human vitronectin as a function of the logarithm of the concentration of each product tested.
For each product the IC50 is determined according to the following formula:
BO=Maximum bond in the absence of any product Bmin=Minimum bond in the presence of the highest concentration of product.

Row | IC50 [nM] | SMILES
1 | 16 | COc1c(C(=O)NCC(NC(=O)OCc2ccccc2)C(=O)O)cc2c(c1OC)C1=C(CCC1)C(=NNC1=NCCN1)CC2 (racemic) [EX. 1, 3-[[[4-[(4,5-dihydro-1H-imidazol-2-yl)hydrazono]-9,10-dimethoxy-1,2,3,4,5,6-hexahydro-8-benz[e]azulenyl]-carbonyl]amino]—N-[(phenylmethoxy)carbonyl]-DL-alanine]
2 | 19 | COc1c(C(=O)NCC(NC(=O)OCc2ccccc2)C(=O)O)cc2c(c1OC)C1=C(CCC1)C(=NNC1=NCCCN1)CC2 (racemic) [EX. 2, 3-[[[9,10-dimethoxy-1,2,3,4,5,6-hexahydro-4-[(1,4,5,6-tetrahydropyrimidin-2-yl)]-hydrazono]-8-benz[e]azulenyl]carbonyl]amino]-N-[(phenylmethoxy)carbonyl]-DL-alanine]
3 | 100 | O=C(O)CC(NC(=O)c1ccc2c(c1)CCC(=NNC1=NCCN1)C1=C2CCC1)c1cccnc1 (stereo not drawn) [EX. 3, beta-[[[4-[(4,5-dihydro-1H-imidazol-2-yl) hydrazono]-1,2,3,4,5,6-hexahydro-8-benz[e]azulenyl]-carbonyl]-amino]-3-pyridine-3-yl-propanoic acid]
4 | 62 | O=C(O)CC(NC(=O)c1ccc2c(c1)CCC(=NNC1=NCCN1)C1=C2CCC1)c1ccc2c(c1)OCO2 (stereo not shown) [EX. 4]
